# Read-outs that look alike come from different tables or passages of the source. No end group written: not given here.
# Tests used:
# [1] = tested on: Trypanosoma cruzi (M/HOM/AR/74/CA-I CL72); format: cell-based; conditions: for IC50: 50% reduction in untreated-culture growth after 96 hours, triplicate wells, three independent trials
# Rhodococcus rhodnii = test: Minimal Inhibitory Concentration; format: cell-based; conditions: single AMP treatment, result in words
# E. coli DH5α = test: Minimal Inhibitory Concentration; format: cell-based, Escherichia coli; conditions: single AMP treatment, result in words
substance,measurement,setting,value
"GIGKFLHSAKKFGKAFVGEIMNS [Magainin, Magainin II]",IC50,"[1]; read-out: IC50B, peptide B alone",10 µM
"GNNRPVYIPQPRPPHPRL-NH2 [Apidaecin, Apidaecin 14]",IC50,"[1]; read-out: IC50A, peptide A alone",0.7 µM
KWKLFKKIEKVGQNIRDGIIKAGPAVAVVGQATQIAK-NH2 [Cecropin A],Growth inhibition of T. cruzi,"[1]; single peptide, 96 hour treatment, 0 to 10 μM concentration range",≤ 50%
"QGYQGGYTRPFPRPPYGGGYHPVPVCTSCHRLSPLQARACCRQLGRCCDAKQTYG [Penaeidin, penaeidin]",Effect on R. rhodnii in MIC assay,Rhodococcus rhodnii,did not have an effect
same,Effect on E. coli in MIC assay,E. coli DH5α,did not have an effect
